The source of these data is patent US8431593B2, “Heteroaryl amide derivatives” (H. Lundbeck A/S, priority 2006, dated 2013).

This assay deals with T1, P2X7 receptor (Homo sapiens, UniProt Q99572).
T1 construct: host or cells: SH-SY5Y
T1 sequence (Q99572 1-595): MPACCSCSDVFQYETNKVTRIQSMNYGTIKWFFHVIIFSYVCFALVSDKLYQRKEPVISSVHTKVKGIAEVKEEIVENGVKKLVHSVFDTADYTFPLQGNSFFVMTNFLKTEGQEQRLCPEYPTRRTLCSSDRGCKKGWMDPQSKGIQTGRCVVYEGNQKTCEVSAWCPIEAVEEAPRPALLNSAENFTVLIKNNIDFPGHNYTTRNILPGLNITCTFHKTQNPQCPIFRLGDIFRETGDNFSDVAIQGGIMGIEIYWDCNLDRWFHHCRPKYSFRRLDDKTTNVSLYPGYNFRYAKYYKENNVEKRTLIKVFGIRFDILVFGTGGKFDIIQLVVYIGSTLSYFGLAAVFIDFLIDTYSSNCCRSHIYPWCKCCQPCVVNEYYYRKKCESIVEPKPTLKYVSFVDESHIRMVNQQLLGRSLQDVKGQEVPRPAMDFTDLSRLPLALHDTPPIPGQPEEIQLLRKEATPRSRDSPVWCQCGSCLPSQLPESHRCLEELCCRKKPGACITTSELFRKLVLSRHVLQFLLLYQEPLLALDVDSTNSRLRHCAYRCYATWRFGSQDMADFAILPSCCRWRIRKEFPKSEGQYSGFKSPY
Put plainly: P2X7 calcium mobilization assay, high throughput, antagonist activity (Example 4A). Format: cell-based. The following applies: 50% decrease in the fluorescence response of cells exposed to 80 μM of 2′(3′)-O-(4-benzoyl-benzoyl)adenosine 5′-triphosphate; Example 4A; read-out: IC50. An outline of the steps:
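Dye-loaded cells (100,000/well, seeded previous day) are pre-exposed to compound for an hour at room temperature. Fluorescence maxima are baseline-corrected against no-agonist wells and compared with the averaged agonist-well maximum.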
(A change in cytosolic calcium serves as a functional read-out for many receptors and channels.)
The term IC50 denotes the point on the concentration scale where inhibition reaches its midpoint. For `CCN(CC)CCCNC(=O)c1cn2c(C(=O)NCC34CC5CC(CC(C5)C3)C4)cccc2n1` [Compound 658, 5-N-(adamantan-1-ylmethyl)-2-N-[3-(diethylamino)propyl] imidazo[1,2-a] pyridine-2,5-dicarboxamide], the IC50 was < 2000 nM.
Next, `CN1CCC(NC(=O)c2cn3c(C(=O)NCC45CC6CC(CC(C6)C4)C5)cccc3n2)CC1` [Compound 659, 5-N-(adamantan-1-ylmethyl)-2-N-(1-methylpiperidin-4-yl)imidazo[1,2-a]pyridine-2,5-dicarboxamide]: < 2000 nM; `O=C(NCCc1ccncc1)c1cn2c(C(=O)NCC34CC5CC(CC(C5)C3)C4)cccc2n1` [Compound 660, 5-N-(adamantan-1-ylmethyl)-2-N-(2-pyridin-4-ylethyl)imidazo[1,2-a]pyridine-2,5-dicarboxamide]: < 2000 nM; `O=C(NCc1ccncc1)c1cn2c(C(=O)NCC34CC5CC(CC(C5)C3)C4)cccc2n1` [Compound 661, 5-N-(adamantan-1-ylmethyl)-2-N-(pyridin-4-ylmethyl)imidazo [1,2-a]pyridine-2,5-dicarboxamide]: < 2000 nM.
As to `O=C(N[C@@H]1CN2CCC1CC2)c1cn2c(C(=O)NCC34CC5CC(CC(C5)C3)C4)cccc2n1` [Compound 662, 5-N-(adamantan-1-ylmethyl)-2-N-[(3S)-1-azabicyclo[2.2.2]oct-3-yl]imidazo[1,2-a]pyridine-2,5-dicarboxamide], the half-inhibitory concentration (IC50) was < 2000 nM.
For `CN1CCCCC1CCNC(=O)c1cn2c(C(=O)NCC34CC5CC(CC(C5)C3)C4)cccc2n1` (centres unmarked) [Compound 664, 5-N-(adamantan-1-ylmethyl)-2-N-[2-(1-methylpiperidin-2-yl)ethyl]imidazo[1,2-a]pyridine-2,5-dicarboxamide], the IC50 is < 2000 nM.
Next, `CN1CCCCC1CNC(=O)c1cn2c(C(=O)NCC34CC5CC(CC(C5)C3)C4)cccc2n1` (centres unmarked) [Compound 666, 5-N-(adamantan-1-ylmethyl)-2-N-[(1-methylpiperidin-2-yl)methyl]imidazo[1,2-a]pyridine-2,5-dicarboxamide]: < 2000 nM.
In the case of `CN1C2CCC1CC(NC(=O)c1cn3c(C(=O)NCC45CC6CC(CC(C6)C4)C5)cccc3n1)C2` (centres unmarked) [Compound 667, 5-N-(adamantan-1-ylmethyl)-2-N-(8-methyl-8-azabicyclo[3.2.1]oct-3-yl)imidazo[1,2-a]pyridine-2,5-dicarboxamide] it was < 2000 nM; in that of `CN1CCCC(CNC(=O)c2cn3c(C(=O)NCC45CC6CC(CC(C6)C4)C5)cccc3n2)C1` (centres unmarked) [Compound 668, 5-N-(adamantan-1-ylmethyl)-2-N-[(1-methylpiperidin-3-yl)methyl]imidazo[1,2-a]pyridine-2,5-dicarboxamide], < 2000 nM; in that of `CN(C)C1CCN(C(=O)c2cn3c(C(=O)NCC45CC6CC(CC(C6)C4)C5)cccc3n2)CC1` [Compound 669, N-(adamantan-1-ylmethyl)-2-{[4-(dimethylamino)piperidin-1-yl]carbonyl}imidazo[1,2-a]pyridine-5-carboxamide], < 2000 nM.
In the case of `CN(C)CCCN(C)C(=O)c1cn2c(C(=O)NCC34CC5CC(CC(C5)C3)C4)cccc2n1` [Compound 670, 5-N-(adamantan-1-ylmethyl)-2-N-[3-(dimethylamino)propyl]-2-N-methylimidazo[1,2-a]pyridine-2,5-dicarboxamide] it was < 2000 nM; in that of `CN1CCC(N(C)C(=O)c2cn3c(C(=O)NCC45CC6CC(CC(C6)C4)C5)cccc3n2)CC1` [Compound 671, 5-N-(adamantan-1-ylmethyl)-2-N-methyl-2-N-(1-methylpiperidin-4-yl)imidazo[1,2-a]pyridine-2,5-dicarboxamide], < 2000 nM; in that of `CCN(CCN(C)C)C(=O)c1cn2c(C(=O)NCC34CC5CC(CC(C5)C3)C4)cccc2n1` [Compound 672, 5-N-(adamantan-1-ylmethyl)-2-N-[2-(dimethylamino)ethyl]-2-N-ethylimidazo[1,2-a]pyridine-2,5-dicarboxamide], < 2000 nM.
`CCN(C)CCN(CC)C(=O)c1cn2c(C(=O)NCC34CC5CC(CC(C5)C3)C4)cccc2n1` [Compound 673, 5-N-(adamantan-1-ylmethyl)-2-N-ethyl-2-N-{2-[ethyl(methyl)amino]ethyl}imidazo[1,2-a]pyridine-2,5-dicarboxamide]: the IC50 was < 2000 nM.
For `CCN(CC)C1CCN(C(=O)c2cn3c(C(=O)NCC45CC6CC(CC(C6)C4)C5)cccc3n2)CC1` [Compound 674, N-(adamantan-1-ylmethyl)-2-{[4-(diethylamino)piperidin-1-yl]carbonyl}imidazo [1,2-a]pyridine-5-carboxamide], the IC50 was < 2000 nM.
Next, `CCN(CC)CCN(C)C(=O)c1cn2c(C(=O)NCC34CC5CC(CC(C5)C3)C4)cccc2n1` [Compound 675, 5-N-(adamantan-1-ylmethyl)-2-N-[2-(diethylamino)ethyl]-2-N-methylimidazo[1,2-a]pyridine-2,5-dicarboxamide]: < 2000 nM.
Consider `CCN(C(=O)c1cn2c(C(=O)NCC34CC5CC(CC(C5)C3)C4)cccc2n1)C1CCN(C)CC1` [Compound 679, 5-N-(adamantan-1-ylmethyl)-2-N-ethyl-2-N-(1-methylpiperidin-4-yl)imidazo[1,2-a]pyridine-2,5-dicarboxamide], for which the IC50 is < 2000 nM.
For `CC(C)N(C(=O)c1cn2c(C(=O)NCC34CC5CC(CC(C5)C3)C4)cccc2n1)C1CCN(C)CC1` [Compound 680, 5-N-(adamantan-1-ylmethyl)-2-N-isopropyl-2-N-(1-methylpiperidin-4-yl)imidazo[1,2-a]pyridine-2,5-dicarboxamide], the 50% inhibitory concentration (IC50) was < 2000 nM.
For `COCCN(C(=O)c1cn2c(C(=O)NCC34CC5CC(CC(C5)C3)C4)cccc2n1)C1CCN(C)CC1` [Compound 681, 5-N-(adamantan-1-ylmethyl)-2-N-(2-methoxyethyl)-2-N-(1-methylpiperidin-4-yl)imidazo[1,2-a]pyridine-2,5-dicarboxamide], the IC50 was < 2000 nM.
With `O=C(Cc1cn2c(C(=O)NCC34CC5CC(CC(C5)C3)C4)cccc2n1)NC1CN2CCC1CC2` (centres unmarked) [Compound 684, N-(adamantan-1-ylmethyl)-2-[2-(1-azabicyclo[2.2.2]oct-3-ylamino)-2-oxoethyl]imidazo[1,2-a]pyridine-5-carboxamide], the IC50 is < 2000 nM.
In the case of `O=C(NCC12CC3CC(CC(C3)C1)C2)c1cccc2nc(Cc3nnn[nH]3)cn12` [Compound 685, N-(adamantan-1-ylmethyl)-2-(1H-tetrazol-5-ylmethyl)imidazo[1,2-a]pyridine-5-carboxamide] it was < 2000 nM; in that of `O=C(O)c1cn2c(C(=O)NCC34CC5CC(CC(C5)C3)C4)cccc2n1` [Compound 686, 5-[(adamantan-1-ylmethyl)carbamoyl] imidazo[1,2-a] pyridine-2-carboxylic acid], < 2000 nM.
Next, `CC(C)CC(CNC(=O)c1cccc2nc(CN3CCOCC3)cn12)C1CCCCC1` (centres unmarked) [Compound 687, N-(2-cyclohexyl-4-methylpentyl)-2-(morpholin-4-ylmethyl)imidazo[1,2-a]pyridine-5-carboxamide]: < 2000 nM; `CC(C)CC(CNC(=O)c1cccc2nc(CN3CCOCC3)cn12)c1ccccc1` (centres unmarked) [Compound 688, N-(4-methyl-2-phenylpentyl)-2-(morpholin-4-ylmethyl)imidazo[1,2-a]pyridine-5-carboxamide]: < 2000 nM; `CCOC(=O)C(Cc1cccnc1)c1cn2c(C(=O)NCC34CC5CC(CC(C5)C3)C4)cccc2n1` (centres unmarked) [Compound 689, ethyl 2-{5-[(adamantan-1-ylmethyl)carbamoyl]imidazo[1,2-a]pyridin-2-yl}-3-pyridin-3-ylpropanoate]: < 2000 nM.
In the case of `CNC1CCN(C(=O)Cc2cn3c(C(=O)NCC45CC6CC(CC(C6)C4)C5)cccc3n2)C1` (centres unmarked) [Compound 690, N-(adamantan-1-ylmethyl)-2-{2-[3-(methylamino)pyrrolidin-1-yl]-2-oxoethyl}imidazo[1,2-a]pyridine-5-carboxamide] it was < 2000 nM; in that of `CN(C)[C@@H]1CCN(C(=O)Cc2cn3c(C(=O)NCC45CC6CC(CC(C6)C4)C5)cccc3n2)C1` [Compound 691, N-(adamantan-1-ylmethyl)-2-{2-[(3R)-3-(dimethylamino)pyrrolidin-1-yl]-2-oxoethyl}imidazo[1,2-a]pyridine-5-carboxamide], < 2000 nM; in that of `O=C(O)CCCc1cn2c(C(=O)NCC34CC5CC(CC(C5)C3)C4)cccc2n1` [Compound 692, 4-{5-[(adamantan-1-ylmethyl)carbamoyl]imidazo[1,2-a]pyridin-2-yl} butanoic acid], < 2000 nM.
For the molecule `CC(Cc1cn2c(C(=O)NCC34CC5CC(CC(C5)C3)C4)cccc2n1)C(=O)O` (centres unmarked) [Compound 693, 3-{5-[(adamantan-1-ylmethyl)carbamoyl]imidazo[1,2-a]pyridin-2-yl}-2-methylpropanoic acid], the IC50 is < 2000 nM.
